Measured values taken from patent publication US7579365B2 (ZIOPHRAM Oncology, Inc., priority 1998, dated 2009).
In brackets after ≈: the same amount, converted by molar mass. Like-named read-outs stand apart in the source and are kept apart here.

Key:
LNCAP cell line = experiment: XTT proliferation test/cytotoxicity test, LNCAP cell line; format: cell-based; conditions: LNCaP tumor cells; for EC50: Homo sapiens, read-out: XTT EC50 LNCaP
Protocol: (§1) In this test system, the effect of substances on the proliferation behavior of tumor cell lines is investigated. In the course of this, the cytotoxic potential of these substances is determined. The test method is described in Scudiero et al. 1988, Cancer Res. 48, 4827.
(§2) The following tumor cell lines were employed in the investigations:
(§3) The KB cell line an epidermal carcinoma of the oral cavity,
(§4) the L1210 cell line a lymphatic leukemia of the mouse, the LNCAP cell line a prostate carcinoma and the SK-OV-3 cell line an ovarian carcinoma.

[1] = for Tox. i.v.: i.v. (Table 5)
L1210 cell line = experiment: XTT proliferation test/cytotoxicity test, L1210 cell line; format: cell-based, mouse; conditions: for EC50: Mus musculus, L1210, L1210 tumor cells, read-out: XTT EC50 L1210; for XTT EC50 L1210: L1210 tumor cells
Protocol: as §1, §2, §3, §4

L1210 = L1210 leukemia model in vivo (% ILS, survival time); set-up: species or system mouse
Excerpt: In the hollow fiber assay, both compounds were almost equally strongly active, while on L 1210 D-24851 was markedly more strongly active after oral and intraperitoneal administration than D-24241.

KB cell line = experiment: XTT proliferation test/cytotoxicity test, KB cell line; format: cell-based; conditions: KB tumor cells; for EC50: Homo sapiens, KB, read-out: XTT EC50 KB
Protocol: as §1, §2, §3, §4

SK-OV-3 cell line = experiment: XTT proliferation test/cytotoxicity test, SK-OV-3 cell line; format: cell-based; conditions: for EC50: Homo sapiens, SK-OV-3, SK-OV-3 tumor cells, read-out: XTT EC50 SK-OV-3; for XTT EC50 SK-OV-3: SK-OV-3 tumor cells
Protocol: as §1, §2, §3, §4

Q: For `COc1cccc2c1C(=O)c1c(O)c3c(c(O)c1C2=O)C[C@@](O)(C(=O)CO)C[C@@H]3O[C@H]1C[C@H](N)[C@H](O)[C@H](C)O1` [Adriamycin, reference compound], which EC50 (LNCAP cell line) is on record?
A: 0.17 µg/mL (≈ 0.313 µM)

Q: What about the Tox. i.v. [1] of the same compound?
A: ≈27.0 i.v. mg/kg

Q: And the EC50 (L1210 cell line)?
A: 0.174 µg/mL (≈ 0.32 µM)

Q: What about the ILS at 14.7 mg/kg (L1210; Mus musculus, L1210, iv, 1 × 14.7 mg/kg i.v.) of the same compound?
A: 111%

Q: What about the EC50 (KB cell line) of the same compound?
A: 0.15 µg/mL (≈ 0.276 µM)

Q: And the EC50 (SK-OV-3 cell line)?
A: 0.089 µg/mL (≈ 0.164 µM)

Q: Which results are given for `C/C(=C\c1csc(C)n1)[C@@H]1C[C@@H]2O[C@]2(C)CCC[C@H](C)[C@H](O)[C@@H](C)C(=O)C(C)(C)[C@@H](O)CC(=O)O1` [Epothilone B, reference compound]?
A: XTT EC50 LNCaP (LNCAP cell line): LNCAR ~ 0.014 μg/ml; Tox. i.p. ([1]; i.p. (Table 5)): ≈100.0 i.p. mg/kg; XTT EC50 L1210 (L1210 cell line): L1210 ~ 0.0017 μg/ml; % ILS L1210 (L1210; 1 × 10 mg/kg i.p.): 44% ILS; XTT EC50 KB (KB cell line): KB ~ 0.0002 μg/ml; XTT EC50 SK-OV-3 (SK-OV-3 cell line): SKOV3 ~ 0.0031 μg/ml

Q: With `O=P1(NCCCl)OCCCN1CCCl` (centres unmarked) [Ifosfamide, reference compound] as the compound, how does the Tox. i.p. ([1]; i.p. (Table 5)) read?
A: ≈732 i.p. mg/kg

Q: What about the ILS at 316 mg/kg (L1210; Mus musculus, L1210, ip, 1 × x 316 mg/kg i.p.) of the same compound?
A: 89%

Q: What does the source list for `C[C@@H]1[O][Pt]2([NH]CC3CCC3C[NH]2)[O]C1=O` (some centres unmarked) [Lobaplatin, reference compound]?
A: Tox. i.p. ([1]; in vivo, ip): ≈34.0 i.p. mg/kg; % ILS L1210 (L1210; 1 × 14.7 mg/kg ip): 55.0% ILS

Q: Which Tox. i.p. ([1]; i.p. (Table 5)) does the source give for `CCCCCCCCCCCCCCCCOP(=O)([O-])OCC[N+](C)(C)C` [Miltefosine] here?
A: ≈46.4 i.p. mg/kg

Q: What about the Tox. p.o. ([1]; p.o. (Table 5)) of the same compound?
A: ≈464-1000 mg/kg

Q: And the “L1210 antitumor action (Table 5)” value (L1210; no dose given)?
A: no action

Q: Which EC50 (LNCAP cell line) does the source give for `O=C1c2c(O)ccc(O)c2C(=O)c2c(NCCNCCO)ccc(NCCNCCO)c21` [Mitoxantrone, reference compound] here?
A: ~0.017 µg/mL (≈ 0.0382 µM)

Q: And the Tox. i.v. [1]?
A: 16 i.v. mg/kg

Q: What about the EC50 (L1210 cell line) of the same compound?
A: < 0.0003 µg/mL

Q: And the ILS at 4.64 mg/kg (L1210; Mus musculus, L1210, iv, 1 × 4.64 mg/kg i.v.)?
A: 144%

Q: And the EC50 (KB cell line)?
A: ~0.174 µg/mL (≈ 0.391 µM)

Q: And the EC50 (SK-OV-3 cell line)?
A: ~0.174 µg/mL (≈ 0.391 µM)

Q: Which results are given for `C/C=C/[C@@H]1O[C@H]([C@H](O)/C=C/C=C(\C)C[C@@H](C)/C=C(C)\C=C\[C@H]2CC=CC(=O)O2)C[C@@H](O)[C@@H]1C` [Ratjadone, reference compound]?
A: XTT EC50 LNCaP (LNCAP cell line): LNCAP < 0.003 μg/ml; Tox. i.p. ([1]; i.p. (Table 5)): ~16.0 mg/kg; Tox. i.v. [1]: ~30.0 i.v. mg/kg; XTT EC50 L1210 (L1210 cell line): L1210 < 0.003 μg/ml; % ILS L1210 (L1210; 1 × 1.47 mg/kg i.p.): 22% ILS; XTT EC50 KB (KB cell line): KB < 0.003 μg/ml; XTT EC50 SK-OV-3 (SK-OV-3 cell line): SKOV3 < 0.003 μg/ml

Q: For `CC[C@]1(O)C[C@H]2CN(CCc3c([nH]c4ccccc34)[C@@](C(=O)OC)(c3cc4c(cc3OC)N(C=O)[C@H]3[C@@](O)(C(=O)OC)[C@H](OC(C)=O)[C@]5(CC)C=CCN6CC[C@]43[C@@H]65)C2)C1` [Vincristine, reference compound], which EC50 (LNCAP cell line; LNCaP) is on record?
A: 0.004 µg/mL (≈ 0.00485 µM)

Q: And the Tox. i.v. [1]?
A: ≈3.0 i.v. mg/kg

Q: What about the EC50 (L1210 cell line) of the same compound?
A: 0.004 µg/mL (≈ 0.00485 µM)

Q: What about the ILS at 1 mg/kg (L1210; Mus musculus, L1210, ip, 1 × 1.0 mg/kg i.p.) of the same compound?
A: 29%

Q: And the EC50 (KB cell line)?
A: < 0.001 µg/mL

Q: And the EC50 (SK-OV-3 cell line)?
A: 0.003 µg/mL (≈ 0.00364 µM)
